Experiments:
MBP-HsIP6K1^L210V = target: T1, MBP-HsIP6K1^L210V (Homo sapiens, UniProt Q92551, L210V); test: Hydrogen deuterium exchange mass spectrometry (HDX-MS), apo vs inhibitor-bound; format: binding; settings: IP6K1^L210V apo vs bound to FMP-201300
T1 construct: made in house; host or cells: E. coli Arctic Express
Method: (§1) Prior to initiation of deuterium exchange reactions, enzymes were incubated with inhibitor or DMSO blank for 15 min at RT (final concentration: 3 µM enzyme, 50 µM inhibitor, in a buffer consisting of 20 mM HEPES 7.4, 50 mM NaCl, 1% DMSO). From this mixture, 5 µl was taken per sample and 45 µl of deuterated buffer was added to initiate deuterium exchange (final concentrations: 300 nM enzyme, 5 µM inhibitor; final buffer concentration: 20 mM HEPES 7.4, 50 mM NaCl, 85.63% deuterium, 0.1% DMSO). Reactions were carried out in triplicate at 3 (3, 30, and 300 s) or four different time points (0.3, 3, 30, and 300 s) and were quenched by the addition of 20 µl of ice-cold quench buffer (final concentration: 0.57 M GuaHCL, 0.86% formic acid). Samples were snap-frozen in liquid nitrogen and then stored at −80°C until mass analysis.
(§2) Samples were rapidly thawed and injected onto an ultra-performance liquid chromatography (UPLC) at 2°C. […] Peptides were identified using data-dependent acquisition methods following tandem MS/MS experiments. MS/MS datasets were analyzed using MaxQuant against a database of purified proteins and known contaminants with an false discovery rate (FDR) cut-off of 1%.
(§3) Deuterium incorporation of peptides was automatically calculated using HDExaminer Software (Sierra Analytics). […]

MBP-HsIP6K1^wt = target: T2, MBP-HsIP6K1^wt (Homo sapiens, UniProt Q92551); test: as above; format: binding; settings: IP6K1^wt apo vs inhibitor-bound
T2 construct: made in house; host or cells: E. coli Arctic Express
T2 sequence (Q92551 whole entry): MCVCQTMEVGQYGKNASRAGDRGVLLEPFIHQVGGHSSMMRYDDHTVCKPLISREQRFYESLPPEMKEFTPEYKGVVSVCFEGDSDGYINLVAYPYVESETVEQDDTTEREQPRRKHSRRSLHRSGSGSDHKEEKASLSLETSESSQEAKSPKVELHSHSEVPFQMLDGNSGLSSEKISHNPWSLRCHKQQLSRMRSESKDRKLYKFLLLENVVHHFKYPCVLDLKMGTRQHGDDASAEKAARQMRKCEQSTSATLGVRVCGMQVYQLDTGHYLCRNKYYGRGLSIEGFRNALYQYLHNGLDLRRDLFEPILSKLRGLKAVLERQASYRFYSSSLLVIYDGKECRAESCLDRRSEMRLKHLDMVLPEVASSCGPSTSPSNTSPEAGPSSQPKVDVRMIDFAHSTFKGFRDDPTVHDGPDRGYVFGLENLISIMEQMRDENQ
Method: as §1, §2, §3

T1 sequence (Q92551 whole entry L210V): as the sequence (Q92551 whole entry) above, with L210V counted along it

Compound: O=C(O)c1ccc2c(c1)C(=O)N(c1ccc(-c3nc4ccc(N5C(=O)c6ccc(C(=O)O)cc6C5=O)cc4[nH]3)cc1)C2=O [FMP-201300]
- change in deuterium exchange rates upon inhibitor binding (MBP-HsIP6K1^L210V): Major decreases in exchange rates were observed in proximity to the ATP-binding site
- change in deuterium incorporation upon inhibitor binding (MBP-HsIP6K1^wt): no significant changes in deuterium incorporation were observed

— article PMC10578927, “An unconventional gatekeeper mutation sensitizes inositol hexakisphosphate kinases to an allosteric inhibitor” (eLife, 2023)
